The subject of series [1] is P-IKKα levels in L363 (NIK translocated multiple myeloma) cells. Description: Effect of compounds on P-IKKα levels in L363 cells (Mesoscale sandwich immuno-assay), Biological Assay B. The format is cell-based, human. The conditions noted are these: 2 hr treatment, averaged values, read-out: Inhibition of pIKKα_L-363 (IC50 (nM)). The method, then: Effect of Compounds on P-IKKα Levels in L363 (NIK Translocated Multiple Myeloma) Cells
All compounds tested were dissolved in DMSO and further dilutions were made in culture medium. Final DMSO concentration was 1% (v/v) in cell assays. The human L363 cells (ATCC) were cultured in RPMI 1640 medium supplemented with GlutaMax and 10% fetal calf serum (PAA). Cells were routinely maintained at densities of 0.2×10^6 cells per ml-1×10^6 cells per ml at 37° C. in a humidified 5% CO2 atmosphere. Cells were passaged twice a week splitting back to obtain the low density. Cells were seeded in 96 well plates (Nunc 167008) at 2×10^6 per ml media in a volume of 75 μl per well plus 25 μl 1 μg/ml recombinant human B-cell activating factor (BAFF/BLyS/TNFSF13B). Seeded cells were incubated at 37° C. in a humidified 5% CO2 atmosphere for 24 hr. Drugs and/or solvents were added (20 μl) to a final volume of 120 μl. Following 2 hr treatment plates were removed from the incubator and cell lysis was achieved by the addition of 30 μl 5× lysis buffer followed by shaking on a plate shaker at 4° C. for 10 min. At the end of this incubation lysed cells were centrifuged at 800×g for 20 min at 4° C. and the lysate was assessed for P-IKKα levels by sandwich immuno-assay carried out in anti-rabbit antibody coated Mesoscale plates. Within an experiment, the results for each treatment were the mean of 2 replicate wells. For initial screening purposes, compounds were tested using an 8 point dilution curve (serial 1:3 dilutions). For each experiment, controls (containing MG132 and BAFF but no test drug) and a blank incubation (containing MG132 and BAFF and 10 μM ADS125117, a test concentration known to give full inhibition) were run in parallel. The blank incubation value was subtracted from all control and sample values. To determine the IC50 a sigmoidal curve was fitted to the plot of % inhibition of control P-IKKα levels versus Log10 compound concentration.
Note: Compounds 237 and 238 were tested at a maximum top concentration of 823 nM.

In series [2] the target is recombinant human NF-kappaB-inducing kinase (NIK/MAP3K14) (Homo sapiens, UniProt Q99558). Nature of the series: Inhibition of auto-phosphorylation of recombinant human NIK/MAP3K14 activity (AlphaScreen), Biological Assay A. It is filed as biochemical. The conditions noted are these: averaged values over all measurements on all batches. In outline:
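GST-tagged enzyme (0.2 nM) incubated with compound and 25 μM ATP in 50 mM Tris pH 7.5, 5 mM MgCl2, 1 mM EGTA, 1 mM DTT, 0.1 mM Na3VO4, 1% DMSO, 1 h at 25 °C. Stopped with anti-phospho-IKK Ser176/180 antibody; AlphaScreen bead read, blank-subtracted, IC50 from sigmoidal fit.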
In general terms: Alpha assays give light when donor and acceptor beads are brought close together.

The subject of series [3] is KMS12-BM (NIK WT) multiple myeloma cells. Description: Antiproliferative activity on KMS12-BM multiple myeloma cells (CellTiter-Glo, 96 hr), Biological Assay C. The settings on record: Homo sapiens, KMS-12-BM, 96 h, averaged values, read-out: KMS-12 Proliferation inhibition (IC50 (nM)). It is filed as cell-based, human. The method in brief: (§1)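 JJN-3 and KMS12-BM cells in RPMI 1640 with 10% FCS were plated at 15000–20000 cells/well and treated 96 h with a 9-point 1:3 dilution series (0.3% DMSO). Viability read by CellTiter-Glo luminescence, blank (time-zero cells) subtracted, expressed as % of untreated control; duplicate wells.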
A general note: In ATP-based viability assays light output follows the ATP content of the culture.

The subject of series [4] is JJN-3 (NIK translocated) multiple myeloma cells. Nature of the series: Antiproliferative activity on JJN-3 multiple myeloma cells (CellTiter-Glo, 96 hr), Biological Assay C. It is filed as cell-based, human. The conditions noted are these: Homo sapiens, JJN-3, 96 h, JJN-3 (NIK translocated) cells, averaged values, read-out: JJN-3 Proliferation inhibition (IC50 (nM)). In outline: as §1

Consider 16 compounds from patent publication US11180487B2, “Substituted cyanoindoline derivatives as NIK inhibitors” (Janssen Pharmaceutica NV, priority 2016, dated 2021).

Read-outs that look alike come from different tables or passages of the source.

Sequence of recombinant human NF-kappaB-inducing kinase (NIK/MAP3K14) (Q99558 whole entry): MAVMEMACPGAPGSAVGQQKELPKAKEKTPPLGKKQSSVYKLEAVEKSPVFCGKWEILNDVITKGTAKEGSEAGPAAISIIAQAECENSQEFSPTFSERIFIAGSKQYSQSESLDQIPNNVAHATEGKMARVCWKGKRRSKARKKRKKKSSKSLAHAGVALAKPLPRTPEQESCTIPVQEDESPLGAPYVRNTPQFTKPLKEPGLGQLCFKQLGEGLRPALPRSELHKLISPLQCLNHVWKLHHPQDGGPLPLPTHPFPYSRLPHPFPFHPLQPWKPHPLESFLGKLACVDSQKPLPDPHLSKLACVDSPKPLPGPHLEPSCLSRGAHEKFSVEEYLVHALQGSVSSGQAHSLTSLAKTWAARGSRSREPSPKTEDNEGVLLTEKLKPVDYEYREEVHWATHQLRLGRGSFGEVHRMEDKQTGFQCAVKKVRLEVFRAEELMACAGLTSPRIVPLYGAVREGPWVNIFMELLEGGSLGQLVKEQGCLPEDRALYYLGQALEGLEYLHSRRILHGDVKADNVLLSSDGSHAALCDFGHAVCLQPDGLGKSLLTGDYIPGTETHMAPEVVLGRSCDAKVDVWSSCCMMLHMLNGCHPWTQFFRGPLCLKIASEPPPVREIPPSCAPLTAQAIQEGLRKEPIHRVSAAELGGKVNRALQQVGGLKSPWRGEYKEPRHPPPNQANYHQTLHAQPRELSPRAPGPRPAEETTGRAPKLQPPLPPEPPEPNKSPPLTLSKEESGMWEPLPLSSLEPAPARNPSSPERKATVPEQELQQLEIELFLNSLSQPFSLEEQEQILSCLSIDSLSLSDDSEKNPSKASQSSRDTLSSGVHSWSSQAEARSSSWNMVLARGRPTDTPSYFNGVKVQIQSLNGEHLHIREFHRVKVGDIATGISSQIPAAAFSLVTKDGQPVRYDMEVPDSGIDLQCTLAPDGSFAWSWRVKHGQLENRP

Take `C[C@]1(CO)CNc2c(C#N)cc(-c3ccnc(Nc4ccccc4C4CCCN4)n3)cc21` (single isomer, unassigned) [Compound 237]: the IC50 in series [1] (Homo sapiens, L-363, 2 h) was > 832 nM; in series [2] it was 214 nM.

For `C[C@]1(CO)CNc2c(C#N)cc(-c3ccnc(Nc4ccccc4C4CCCN4)n3)cc21` (single isomer, unassigned) [Compound 238], the IC50 is > 832 nM in series [1] and 955 nM in series [2].

On to `C[C@]1(CO)CNc2c(C#N)cc(-c3ccnc(Nc4ccc(S(C)(=O)=O)cc4CCC4CC4)n3)cc21` [Compound 2], for which the IC50 in series [3] was > 10000 nM; in series [4] it was 58 nM; in series [1] (Homo sapiens, L-363, 2 h) it was 4.8 nM; in series [2] it was 4.3 nM.

Regarding `CCCCCc1cc(S(C)(=O)=O)ccc1Nc1nccc(-c2cc(C#N)c3c(c2)[C@@](C)(CO)CN3)n1` [Compound 3], the IC50 was > 10000 nM in series [3]; 115 nM in series [4]; 15.1 nM in series [1] (Homo sapiens, L-363, 2 h); 10.2 nM in series [2].

Turning to `CNC(=O)c1ccc(C)c(Nc2nccc(-c3cc(C#N)c4c(c3)[C@@](C)(CO)CN4)n2)c1` [Compound 4], the IC50 was > 10000 nM in series [3]; 759 nM in series [4]; 20.9 nM in series [1] (Homo sapiens, L-363, 2 h); 4.2 nM in series [2].

As for `C[C@]1(CO)CNc2c(C#N)cc(-c3ccnc(Nc4cc(C#N)ccc4OC4CC4)n3)cc21` [Compound 10], the IC50 in series [3] is 1230 nM; in series [4], 67 nM; in series [1] (Homo sapiens, L-363, 2 h) it was 11.5 nM; in series [2], 7.4 nM.

For the compound `Cc1cc(F)c(C#N)cc1Nc1nccc(-c2cc(C#N)c3c(c2)[C@@](C)(CO)CN3)n1` [Compound 11], the IC50 in series [3] is > 10000 nM; in series [4], 617 nM; in series [1] (Homo sapiens, L-363, 2 h), 6 nM; in series [2], 1.8 nM.

`CC(C)(O)COc1ccc(C#N)cc1Nc1nccc(-c2cc(C#N)c3c(c2)[C@@](C)(CO)CN3)n1` [Compound 12]: the IC50 was found to be 4900 nM in series [3]; 138 nM in series [4]; 25.7 nM in series [1] (Homo sapiens, L-363, 2 h); 4.1 nM in series [2].

One may read the melting point as the temperature, or range, at which the solid turns liquid. `COc1cc(C(=O)N2CCNC(C#N)C2)c(Cl)cc1Nc1nccc(-c2cc(C#N)c3c(c2)C(C)(C)CN3)n1` (stereo not shown) [Compound 121]: the melting point amounted to 193 °C. Further, the IC50 in series [3] is 120 nM. In addition, in series [4], the IC50 came out at 12 nM. In addition, the IC50 in series [2] came out at 8.5 nM.

Take `COc1cc(C(=O)N2CC3(CC(O)C3)C2)c(Cl)cc1Nc1nccc(-c2cc(C#N)c3c(c2)C(C)(C)CN3)n1` [Compound 123]: the melting point came to 287 °C. The IC50 in series [3] was determined as 1050 nM. Moreover, the IC50 in series [4] is 14 nM. Moreover, in series [2], the IC50 was determined as 8.5 nM.

For the compound `Cc1ccc(C#N)cc1Nc1nccc(-c2cc(C#N)c3c(c2)[C@@](C)(COC(=O)CN2CCN(C)CC2)CN3)n1` [Compound 145], the IC50 in series [1] (Homo sapiens, L-363, 2 h) stood at 436 nM; in series [2] it was 17.4 nM.

Consider `Cc1ccc(COC(C)C)cc1Nc1nccc(-c2cc(C#N)c3c(c2)[C@@](C)(CO)CN3)n1` [Compound 149], for which the IC50 in series [1] (Homo sapiens, L-363, 2 h) amounted to 102 nM; in series [2], 10 nM.

Consider `Cc1cc(C(=O)NCC2COC2)c(F)cc1Nc1nccc(-c2cc(C#N)c3c(c2)[C@@](C)(CO)CN3)n1` [Compound 187], for which the melting point stood at 240 °C. The IC50 in series [3] worked out at 1100 nM. Moreover, in series [4], the IC50 came to 39 nM. Besides, the IC50 in series [2] was 3.2 nM.

The compound `Cc1c(Nc2nccc(-c3cc(C#N)c4c(c3)[C@@](C)(CO)CN4)n2)cccc1C(=O)N1CCN(C2CC2)CC1` [Compound 206] yielded a melting point of 238 °C. Besides, in series [3], the IC50 was ~7240 nM. Moreover, the IC50 in series [4] came to 71 nM. The IC50 in series [2] was 5.3 nM.

As to `Cc1ccc(C2CN(C)C2)cc1Nc1nccc(-c2cc(C#N)c3c(c2)[C@@](C)(CO)CN3)n1` [Compound 210], the IC50 in series [1] (Homo sapiens, L-363, 2 h) is > 10000 nM; in series [2], 33.1 nM.

Take `Cc1ccc(CN2CCOCC2)c(Nc2nccc(-c3cc(C#N)c4c(c3)[C@@](C)(CO)CN4)n2)c1` [Compound 222]: the IC50 in series [1] (Homo sapiens, L-363, 2 h) amounted to 302 nM; in series [2], 31.6 nM.
